According to article PMC9516332 (Frontiers in Oncology, 2022):
Where two headings read alike, the source gives them in different places.

Assays:
134 cancer cell lines [1] = test system: 134 cancer cell lines
134 cancer cell lines [2] = assay: Cell viability assay (ATPlite, 72 hours), IC50 on cancer cell line panel

Question: How did the IC50 (134 cancer cell lines [1]) turn out when `Cc1nc(NC(=O)N2CCC[C@H]2C(N)=O)sc1-c1ccnc(C(C)(C)C(F)(F)F)c1` [alpelisib] was run?
Answer: 0.534 µM

Question: What about the IC50 (134 cancer cell lines [2]; HEC-6, read-out: IC50 in cell proliferation assay, HEC-6 cell line (EGFR p.A289V)) of the same molecule?
Answer: 7.66 µM

Question: What about the IC50 (134 cancer cell lines [2]; Homo sapiens, 769-P, read-out: IC50 in cell proliferation assay, cell line 769-P) of the same molecule?
Answer: 14.3 µM

Question: What about the IC50 (134 cancer cell lines [2]; Homo sapiens, 786-0, read-out: IC50 in cell proliferation assay, cell line 786-O) of the same molecule?
Answer: > 31.6 µM

Question: And the IC50 (134 cancer cell lines [2]; Homo sapiens, A 172, read-out: IC50 in cell proliferation assay, cell line A-172)?
Answer: 19.6 µM

Question: What about the IC50 (134 cancer cell lines [2]; Homo sapiens, A204, read-out: IC50 in cell proliferation assay, cell line A-204) of the same molecule?
Answer: 0.247 µM

Question: And the IC50 (134 cancer cell lines [2]; Homo sapiens, A498, read-out: IC50 in cell proliferation assay, cell line A-498)?
Answer: 14.4 µM

Question: And the IC50 (134 cancer cell lines [2]; Homo sapiens, A549, read-out: IC50 in cell proliferation assay, cell line A-549)?
Answer: 9.89 µM

Question: And the IC50 (134 cancer cell lines [2]; Homo sapiens, A704, read-out: IC50 in cell proliferation assay, cell line A-704)?
Answer: 27 µM

Question: And the IC50 (134 cancer cell lines [2]; Homo sapiens, A-375, read-out: IC50 in cell proliferation assay, cell line A-375 (BRAF p.V600E))?
Answer: 14.9 µM

Question: What about the IC50 (134 cancer cell lines [2]; Homo sapiens, A-427, read-out: IC50 in cell proliferation assay, cell line A-427) of the same molecule?
Answer: 0.074 µM

Question: And the IC50 (134 cancer cell lines [2]; Homo sapiens, ACHN, read-out: IC50 in cell proliferation assay, cell line ACHN)?
Answer: 9.68 µM

Question: What about the IC50 (134 cancer cell lines [2]; Homo sapiens, AN3-CA, read-out: IC50 in cell proliferation assay, cell line AN3-CA (FGFR2 p.N549K)) of the same molecule?
Answer: 0.697 µM

Question: And the IC50 (134 cancer cell lines [2]; Homo sapiens, ASPC1, read-out: IC50 in cell proliferation assay, cell line AsPC-1)?
Answer: 8.97 µM

Question: What about the IC50 (134 cancer cell lines [2]; Homo sapiens, AU565, read-out: IC50 in cell proliferation assay, cell line AU565 (ERBB2 amplification)) of the same molecule?
Answer: 1.56 µM

Question: And the IC50 (134 cancer cell lines [2]; Homo sapiens, BT-20, read-out: IC50 in cell proliferation assay, cell line BT-20)?
Answer: 3.55 µM

Question: What about the IC50 (134 cancer cell lines [2]; Homo sapiens, BT-474, read-out: IC50 in cell proliferation assay, cell line BT-474 (ERBB2 amplification)) of the same molecule?
Answer: 3.2 µM

Question: What about the IC50 (134 cancer cell lines [2]; Homo sapiens, BT-549, read-out: IC50 in cell proliferation assay, cell line BT-549) of the same molecule?
Answer: 16.6 µM

Question: And the IC50 (134 cancer cell lines [2]; Homo sapiens, BXPC-3, read-out: IC50 in cell proliferation assay, cell line BxPC-3)?
Answer: 5.88 µM

Question: And the IC50 (134 cancer cell lines [2]; Homo sapiens, C-33-A, read-out: IC50 in cell proliferation assay, cell line C-33 A)?
Answer: 25.1 µM

Question: And the IC50 (134 cancer cell lines [2]; Homo sapiens, CAL-27, read-out: IC50 in cell proliferation assay, cell line CAL-27)?
Answer: 2.31 µM

Question: And the IC50 (134 cancer cell lines [2]; Homo sapiens, CCF-STTG1, read-out: IC50 in cell proliferation assay, cell line CCF-STTG1)?
Answer: > 31.6 µM

Question: What about the IC50 (134 cancer cell lines [2]; Homo sapiens, CCRF-CEM, read-out: IC50 in cell proliferation assay, cell line CCRF-CEM) of the same molecule?
Answer: 4.28 µM

Question: And the IC50 (134 cancer cell lines [2]; Homo sapiens, COLO 205, read-out: IC50 in cell proliferation assay, cell line COLO 205 (BRAF p.V600E))?
Answer: 14.1 µM

Question: And the IC50 (134 cancer cell lines [2]; Homo sapiens, COLO-829, read-out: IC50 in cell proliferation assay, cell line COLO 829 (BRAF p.V600E))?
Answer: > 31.6 µM

Question: And the IC50 (134 cancer cell lines [2]; Homo sapiens, DLD-1, read-out: IC50 in cell proliferation assay, cell line DLD-1)?
Answer: 0.676 µM

Question: And the IC50 (134 cancer cell lines [2]; Homo sapiens, DU-4475, read-out: IC50 in cell proliferation assay, cell line DU4475 (BRAF p.V600E))?
Answer: 0.628 µM

Question: And the IC50 (134 cancer cell lines [2]; Homo sapiens, Daoy, read-out: IC50 in cell proliferation assay, cell line Daoy)?
Answer: 9.36 µM

Question: What about the IC50 (134 cancer cell lines [2]; Homo sapiens, DoTc2-4510, read-out: IC50 in cell proliferation assay, cell line DoTc2 4510) of the same molecule?
Answer: 1.3 µM

Question: What about the IC50 (134 cancer cell lines [2]; Homo sapiens, EOL1, read-out: IC50 in cell proliferation assay, cell line EoL-1 (FIP1L1-PDGFRA)) of the same molecule?
Answer: 0.335 µM

Question: And the IC50 (134 cancer cell lines [2]; Homo sapiens, FaDu, read-out: IC50 in cell proliferation assay, cell line FaDu)?
Answer: 1.71 µM

Question: What about the IC50 (134 cancer cell lines [2]; Homo sapiens, G-361, read-out: IC50 in cell proliferation assay, cell line G-361 (BRAF p.V600E)) of the same molecule?
Answer: 16.6 µM

Question: What about the IC50 (134 cancer cell lines [2]; Homo sapiens, HCC827, read-out: IC50 in cell proliferation assay, cell line HCC827 (EGFR exon19del)) of the same molecule?
Answer: 5.4 µM

Question: And the IC50 (134 cancer cell lines [2]; Homo sapiens, HCC4006, read-out: IC50 in cell proliferation assay, cell line HCC4006 (EGFR exon19del))?
Answer: 4.56 µM

Question: And the IC50 (134 cancer cell lines [2]; Homo sapiens, HCT-15, read-out: IC50 in cell proliferation assay, cell line HCT 15)?
Answer: 0.838 µM

Question: What about the IC50 (134 cancer cell lines [2]; Homo sapiens, HCT-116, read-out: IC50 in cell proliferation assay, cell line HCT 116) of the same molecule?
Answer: 6.31 µM

Question: And the IC50 (134 cancer cell lines [2]; Homo sapiens, HEC-1, read-out: IC50 in cell proliferation assay, HEC-1 cell line)?
Answer: 5.84 µM

Question: And the IC50 (134 cancer cell lines [2]; Homo sapiens, HEC-1B, read-out: IC50 in cell proliferation assay, HEC-1-B cell line (EGFR p.A864V))?
Answer: 0.943 µM

Question: And the IC50 (134 cancer cell lines [2]; Homo sapiens, HL-60, read-out: IC50 in cell proliferation assay, HL-60 cell line)?
Answer: 1.69 µM

Question: What about the IC50 (134 cancer cell lines [2]; Homo sapiens, HT, read-out: IC50 in cell proliferation assay, HT cell line) of the same molecule?
Answer: 14.3 µM

Question: And the IC50 (134 cancer cell lines [2]; Homo sapiens, HT-1080, read-out: IC50 in cell proliferation assay, HT-1080 cell line)?
Answer: 0.314 µM

Question: What about the IC50 (134 cancer cell lines [2]; Homo sapiens, Hs746T, read-out: IC50 in cell proliferation assay, Hs 746.T cell line (MET exon14skip + amplification)) of the same molecule?
Answer: 5.75 µM

Question: And the IC50 (134 cancer cell lines [2]; Homo sapiens, Hs-578T, read-out: IC50 in cell proliferation assay, Hs 578T cell line)?
Answer: 8.51 µM

Question: What about the IC50 (134 cancer cell lines [2]; Homo sapiens, HuTu80, read-out: IC50 in cell proliferation assay, HuTu 80 cell line) of the same molecule?
Answer: 1.09 µM

Question: What about the IC50 (134 cancer cell lines [2]; Homo sapiens, J82, read-out: IC50 in cell proliferation assay, J82 cell line) of the same molecule?
Answer: > 31.6 µM

Question: And the IC50 (134 cancer cell lines [2]; Homo sapiens, Jurkat E6.1, read-out: IC50 in cell proliferation assay, Jurkat E6.1 cell line)?
Answer: 12.9 µM

Question: What about the IC50 (134 cancer cell lines [2]; Homo sapiens, K562, read-out: IC50 in cell proliferation assay, K-562 cell line) of the same molecule?
Answer: > 31.6 µM

Question: What about the IC50 (134 cancer cell lines [2]; Homo sapiens, KATO III, read-out: IC50 in cell proliferation assay, KATO III cell line (FGFR2 amplification)) of the same molecule?
Answer: 2.79 µM

Question: And the IC50 (134 cancer cell lines [2]; Homo sapiens, KG-1, read-out: IC50 in cell proliferation assay, KG-1 cell line (FGFR1OP2-FGFR1))?
Answer: 27.7 µM

Question: What about the IC50 (134 cancer cell lines [2]; Homo sapiens, KLE, read-out: IC50 in cell proliferation assay, KLE cell line) of the same molecule?
Answer: 5.79 µM

Question: What about the IC50 (134 cancer cell lines [2]; Homo sapiens, KMS-11, read-out: IC50 in cell proliferation assay, KMS-11 cell line (FGFR3 p.Y373C)) of the same molecule?
Answer: 1.53 µM

Question: And the IC50 (134 cancer cell lines [2]; Homo sapiens, KU812, read-out: IC50 in cell proliferation assay, Ku812 cell line)?
Answer: 0.075 µM

Question: And the IC50 (134 cancer cell lines [2]; Homo sapiens, Kasumi 1, read-out: IC50 in cell proliferation assay, Kasumi-1 cell line (KIT p.N822K))?
Answer: 1.9 µM

Question: What about the IC50 (134 cancer cell lines [2]; Homo sapiens, LC-2-ad, read-out: IC50 in cell proliferation assay, LC-2/ad cell line (CCDC6-RET)) of the same molecule?
Answer: 4.5 µM

Question: And the IC50 (134 cancer cell lines [2]; Homo sapiens, LNCaP-Clone-FGC, read-out: IC50 in cell proliferation assay, LNCaP clone FGC cell line)?
Answer: > 31.6 µM

Question: And the IC50 (134 cancer cell lines [2]; Homo sapiens, LS174T, read-out: IC50 in cell proliferation assay, LS174T cell line)?
Answer: 1.9 µM

Question: What about the IC50 (134 cancer cell lines [2]; Homo sapiens, LS-411N, read-out: IC50 in cell proliferation assay, LS411N cell line (BRAF p.V600E)) of the same molecule?
Answer: 17.4 µM

Question: And the IC50 (134 cancer cell lines [2]; Homo sapiens, LoVo, read-out: IC50 in cell proliferation assay, LoVo cell line)?
Answer: 20.5 µM

Question: And the IC50 (134 cancer cell lines [2]; Homo sapiens, MCF7, read-out: IC50 in cell proliferation assay, MCF-7 cell line)?
Answer: 2.79 µM

Question: What about the IC50 (134 cancer cell lines [2]; Homo sapiens, MDA-MB-231, read-out: IC50 in cell proliferation assay, MDA-MB-231 cell line) of the same molecule?
Answer: > 31.6 µM

Question: And the IC50 (134 cancer cell lines [2]; Homo sapiens, MDA-MB-453, read-out: IC50 in cell proliferation assay, MDA-MB-453 cell line)?
Answer: 6.03 µM

Question: And the IC50 (134 cancer cell lines [2]; Homo sapiens, MDA-MB-468, read-out: IC50 in cell proliferation assay, MDA-MB-468 cell line)?
Answer: 9.8 µM

Question: And the IC50 (134 cancer cell lines [2]; Homo sapiens, MG-63, read-out: IC50 in cell proliferation assay, MG-63 cell line)?
Answer: 3.87 µM

Question: And the IC50 (134 cancer cell lines [2]; Homo sapiens, MIA PaCa-2, read-out: IC50 in cell proliferation assay, MIA PaCa-2 cell line)?
Answer: 10.7 µM

Question: And the IC50 (134 cancer cell lines [2]; Homo sapiens, MKN-45, read-out: IC50 in cell proliferation assay, MKN45 cell line (MET amplification))?
Answer: 1.23 µM

Question: What about the IC50 (134 cancer cell lines [2]; Homo sapiens, MOLM-13, read-out: IC50 in cell proliferation assay, MOLM-13 cell line (FLT3 ITD)) of the same molecule?
Answer: 3.48 µM

Question: What about the IC50 (134 cancer cell lines [2]; Homo sapiens, MOLT-4, read-out: IC50 in cell proliferation assay, MOLT-4 cell line) of the same molecule?
Answer: 0.701 µM
